Earlier results as cited in patent publication US4361545A (Rowell Laboratories, Inc., priority 1981, dated 1982).

In the case of `Cn1c(=O)c2[nH]cnc2n(C)c1=O` [theophylline], the solubility is listed as “low to moderate solubility”.
